# Reference: ChEMBL document CHEMBL1201862, “PubChem BioAssay data set” (2004)
# Active and inactive are the calls of the source.
# What was measured:
# [1] = target: T1, Short transient receptor potential channel 4 (Mus musculus, UniProt Q9QUQ5); assay: block of DAMGO-driven TRPC4 calcium entry – cell-based, HEK293 TRPC4/mu-opioid, Fluo-4 calcium, dose response (AID 434942); type: functional;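 note: potency of inhibitors blocking the TRPC4 calcium response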
# T1 sequence (Q9QUQ5 whole entry): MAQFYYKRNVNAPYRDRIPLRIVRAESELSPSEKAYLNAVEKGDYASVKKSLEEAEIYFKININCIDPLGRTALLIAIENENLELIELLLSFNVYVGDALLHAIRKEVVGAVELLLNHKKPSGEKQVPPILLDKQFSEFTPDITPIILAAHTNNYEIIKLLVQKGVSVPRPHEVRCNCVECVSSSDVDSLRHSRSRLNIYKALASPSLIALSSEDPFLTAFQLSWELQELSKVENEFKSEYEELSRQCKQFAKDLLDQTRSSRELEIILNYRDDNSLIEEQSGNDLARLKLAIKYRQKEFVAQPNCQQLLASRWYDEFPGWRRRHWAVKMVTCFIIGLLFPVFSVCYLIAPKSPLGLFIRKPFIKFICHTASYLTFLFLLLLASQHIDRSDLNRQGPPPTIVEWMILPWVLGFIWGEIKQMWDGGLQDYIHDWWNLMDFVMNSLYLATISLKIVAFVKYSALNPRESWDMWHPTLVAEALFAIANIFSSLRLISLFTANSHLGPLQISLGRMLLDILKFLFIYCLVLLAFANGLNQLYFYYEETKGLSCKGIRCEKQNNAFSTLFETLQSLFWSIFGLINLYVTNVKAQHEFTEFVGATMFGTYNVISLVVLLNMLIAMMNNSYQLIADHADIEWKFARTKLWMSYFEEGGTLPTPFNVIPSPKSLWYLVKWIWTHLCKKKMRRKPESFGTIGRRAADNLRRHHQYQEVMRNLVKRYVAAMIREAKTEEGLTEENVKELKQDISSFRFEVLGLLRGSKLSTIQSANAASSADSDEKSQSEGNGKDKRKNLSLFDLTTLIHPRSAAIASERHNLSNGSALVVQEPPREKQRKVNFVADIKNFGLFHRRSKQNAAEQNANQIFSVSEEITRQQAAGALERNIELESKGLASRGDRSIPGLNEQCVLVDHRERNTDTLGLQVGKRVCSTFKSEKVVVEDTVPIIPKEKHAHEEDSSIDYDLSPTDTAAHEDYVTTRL
# [2] = cells; type: functional, cell-based
# [3] = target: Glyceraldehyde-3-phosphate dehydrogenase (Homo sapiens, UniProt P04406)
# Chain of Glyceraldehyde-3-phosphate dehydrogenase (P04406 whole entry): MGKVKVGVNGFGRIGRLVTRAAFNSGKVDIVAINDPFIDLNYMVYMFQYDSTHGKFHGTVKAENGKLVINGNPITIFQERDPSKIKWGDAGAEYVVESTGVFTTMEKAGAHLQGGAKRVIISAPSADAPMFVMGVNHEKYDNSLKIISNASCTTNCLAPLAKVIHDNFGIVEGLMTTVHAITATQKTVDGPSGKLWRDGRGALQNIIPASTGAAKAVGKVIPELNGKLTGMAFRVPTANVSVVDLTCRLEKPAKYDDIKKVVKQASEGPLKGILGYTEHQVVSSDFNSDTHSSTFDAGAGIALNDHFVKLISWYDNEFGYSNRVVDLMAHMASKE
# [4] = cells; type: functional, cell-based; remark: listed apart in the source
# [5] = system: HEK293; assay: cells; type: functional, cell-based; conditions: Homo sapiens
# [6] = system: HEK293; assay: cells; type: functional, cell-based; conditions: Homo sapiens; remark: listed apart in the source
# [7] = system: HEK293; assay: NOD2 signaling inhibitors in MDP-stimulated cells, cell-based, uHTS, luminescence (AID 2001); type: functional; conditions: Homo sapiens
# [8] = target: Nucleotide-binding oligomerization domain-containing protein 2 (Homo sapiens, UniProt Q9HC29); assay: inhibition of NOD2-driven NF-kB reporter – cell-based, luminescence, uHTS, HEK293 (AID 1566); type: functional
# Chain of Nucleotide-binding oligomerization domain-containing protein 2 (Q9HC29 whole entry, the tested form may be a part): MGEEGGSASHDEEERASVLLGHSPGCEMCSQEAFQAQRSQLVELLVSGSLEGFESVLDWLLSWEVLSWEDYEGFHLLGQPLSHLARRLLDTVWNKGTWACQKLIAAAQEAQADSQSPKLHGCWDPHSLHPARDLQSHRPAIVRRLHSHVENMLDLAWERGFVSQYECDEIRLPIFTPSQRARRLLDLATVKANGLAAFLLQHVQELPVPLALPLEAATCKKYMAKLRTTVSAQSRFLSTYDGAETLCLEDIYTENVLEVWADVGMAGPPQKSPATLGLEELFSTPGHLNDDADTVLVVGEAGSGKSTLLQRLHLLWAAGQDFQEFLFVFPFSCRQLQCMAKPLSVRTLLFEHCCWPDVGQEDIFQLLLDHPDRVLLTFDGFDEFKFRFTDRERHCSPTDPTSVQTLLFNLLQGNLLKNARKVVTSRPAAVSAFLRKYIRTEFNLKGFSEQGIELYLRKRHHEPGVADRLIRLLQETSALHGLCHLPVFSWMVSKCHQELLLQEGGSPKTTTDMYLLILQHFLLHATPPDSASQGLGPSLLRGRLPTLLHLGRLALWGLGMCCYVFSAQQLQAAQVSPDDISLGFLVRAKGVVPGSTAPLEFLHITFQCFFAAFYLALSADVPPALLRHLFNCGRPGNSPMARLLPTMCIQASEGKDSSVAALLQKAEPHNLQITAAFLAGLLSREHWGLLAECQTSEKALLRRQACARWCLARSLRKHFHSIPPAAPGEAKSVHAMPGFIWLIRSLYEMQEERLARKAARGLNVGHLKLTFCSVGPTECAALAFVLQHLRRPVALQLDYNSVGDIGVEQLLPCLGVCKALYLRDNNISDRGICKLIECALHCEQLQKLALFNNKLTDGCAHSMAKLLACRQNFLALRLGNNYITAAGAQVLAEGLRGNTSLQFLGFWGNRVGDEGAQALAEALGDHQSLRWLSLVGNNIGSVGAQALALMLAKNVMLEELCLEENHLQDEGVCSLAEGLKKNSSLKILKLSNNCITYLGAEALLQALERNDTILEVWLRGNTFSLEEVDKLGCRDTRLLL
# [9] = system: HEK293; assay: cells; type: functional, cell-based; conditions: Homo sapiens; remark: listed apart in the source
# [10] = system: HEK293; assay: inhibition of NOD1-driven NF-kB reporter – cell-based, luminescence, uHTS, primary screen (AID 1578); type: functional; conditions: Homo sapiens
# [11] = target: T2, Insulin-degrading enzyme (Homo sapiens, UniProt P14735); assay: Dose Response: Fluorescence polarization-based cell-based high throughput dose response assay for inhibitors of insulin-degrading enzyme (IDE). [Related pubchem assays: 434962 (Primary screen (IDE inhibitors in singlicate)), 449730 (Counterscreen (Cytotoxicity in triplicate)), 435028 (Confirmation (IDE inhibitors in triplicate)), 434984 (Summary …; type: functional
# T2 sequence (P14735 whole entry): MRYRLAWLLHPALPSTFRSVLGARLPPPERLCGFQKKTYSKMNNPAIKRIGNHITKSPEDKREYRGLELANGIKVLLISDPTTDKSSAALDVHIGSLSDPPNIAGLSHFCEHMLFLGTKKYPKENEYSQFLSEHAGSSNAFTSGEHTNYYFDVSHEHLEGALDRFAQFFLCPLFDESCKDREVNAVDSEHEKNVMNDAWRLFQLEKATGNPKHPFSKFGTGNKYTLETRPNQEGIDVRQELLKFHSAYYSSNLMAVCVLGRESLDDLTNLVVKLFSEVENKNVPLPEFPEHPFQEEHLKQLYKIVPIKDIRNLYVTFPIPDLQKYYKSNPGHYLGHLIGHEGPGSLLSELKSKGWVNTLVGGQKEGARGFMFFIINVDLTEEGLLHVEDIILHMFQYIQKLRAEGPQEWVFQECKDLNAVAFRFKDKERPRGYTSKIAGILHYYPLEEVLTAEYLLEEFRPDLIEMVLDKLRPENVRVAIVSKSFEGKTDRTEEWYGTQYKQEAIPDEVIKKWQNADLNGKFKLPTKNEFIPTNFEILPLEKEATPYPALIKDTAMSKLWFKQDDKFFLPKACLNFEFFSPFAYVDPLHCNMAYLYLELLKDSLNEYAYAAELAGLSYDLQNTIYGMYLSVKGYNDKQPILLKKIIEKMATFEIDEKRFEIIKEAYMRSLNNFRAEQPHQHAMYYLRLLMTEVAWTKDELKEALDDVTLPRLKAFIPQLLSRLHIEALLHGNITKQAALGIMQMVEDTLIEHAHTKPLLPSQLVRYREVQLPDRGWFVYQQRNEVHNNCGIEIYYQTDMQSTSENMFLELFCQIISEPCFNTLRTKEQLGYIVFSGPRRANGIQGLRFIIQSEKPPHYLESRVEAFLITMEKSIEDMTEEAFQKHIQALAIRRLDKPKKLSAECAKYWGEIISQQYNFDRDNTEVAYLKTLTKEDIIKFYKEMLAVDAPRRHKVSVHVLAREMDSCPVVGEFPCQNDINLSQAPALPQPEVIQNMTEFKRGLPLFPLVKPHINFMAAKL
# [12] = Counterscreen for IDE inhibitors: Luminescence-based cell-based high throughput dose response assay to identify compounds that are cytotoxic to HEK cells. [Related pubchem assays: 434962 (Primary screen (IDE inhibitors in singlicate)), 449730 (Counterscreen (Cytotoxicity in triplicate)), 435028 (Confirmation (IDE inhibitors in triplicate)) …; type: functional; conditions: HEK293
# [13] = target: T3, Microphthalmia-associated transcription factor (Homo sapiens, UniProt O75030); assay: reducers of TRPM1 reporter luminescence, concentration series – cell-based, SK-MEL-5, cherry-picked, set 3, MITF inhibitor project, dose response (AID 493073); type: functional;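 note: SK-MEL-5 melanoma cells with luciferase driven by the MITF target TRPM1 promoter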
# T3 sequence (O75030 whole entry): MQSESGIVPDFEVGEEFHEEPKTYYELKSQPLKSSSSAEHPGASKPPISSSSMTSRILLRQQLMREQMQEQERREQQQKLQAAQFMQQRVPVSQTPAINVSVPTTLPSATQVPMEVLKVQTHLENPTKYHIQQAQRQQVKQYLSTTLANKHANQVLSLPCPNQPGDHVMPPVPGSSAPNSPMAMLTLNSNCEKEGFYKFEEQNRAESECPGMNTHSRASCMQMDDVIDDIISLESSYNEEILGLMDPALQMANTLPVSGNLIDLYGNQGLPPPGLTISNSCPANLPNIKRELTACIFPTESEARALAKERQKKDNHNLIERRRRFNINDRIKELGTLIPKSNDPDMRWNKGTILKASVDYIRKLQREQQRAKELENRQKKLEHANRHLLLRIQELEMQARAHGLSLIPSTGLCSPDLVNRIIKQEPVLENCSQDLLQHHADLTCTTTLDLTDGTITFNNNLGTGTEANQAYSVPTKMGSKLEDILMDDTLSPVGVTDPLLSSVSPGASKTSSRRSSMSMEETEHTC
# [14] = luciferase reporter signal suppression in cells – H4 neuroglioma cells, luminescence, dose response (AID 1990); type: functional, cell-based
# [15] = target: FAD-linked sulfhydryl oxidase ALR (Homo sapiens, UniProt P55789); assay: ALR-catalysed DTT oxidation blockers – biochemical, H2O2 detection, luminescence, cherry-pick, dose response (AID 493248)
# Chain of FAD-linked sulfhydryl oxidase ALR (P55789 whole entry): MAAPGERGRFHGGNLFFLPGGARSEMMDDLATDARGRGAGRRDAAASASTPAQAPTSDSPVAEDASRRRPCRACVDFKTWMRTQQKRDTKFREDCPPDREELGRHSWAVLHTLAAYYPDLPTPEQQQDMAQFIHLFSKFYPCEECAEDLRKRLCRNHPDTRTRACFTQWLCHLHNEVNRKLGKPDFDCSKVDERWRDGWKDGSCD
# [16] = alpha-synuclein stem-loop luciferase translation blockers – H4 neuroglioma cells, luminescence, confirmation (AID 1988); type: functional, cell-based
# [17] = target: T4, Heat shock factor protein 1 (Mus musculus, UniProt P38532); assay: decrease of HSF1-responsive luciferase luminescence – cell-based, NIH3T3, dose retest, confirmation (AID 2382); type: functional;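 note: NIH3T3 fibroblasts with HSF1-driven luciferase reporter stressed by proteasome inhibitor MG132; luminescence from HSF1-driven luciferase expression after 8 hours of MG132 stress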
# T4 sequence (P38532 whole entry): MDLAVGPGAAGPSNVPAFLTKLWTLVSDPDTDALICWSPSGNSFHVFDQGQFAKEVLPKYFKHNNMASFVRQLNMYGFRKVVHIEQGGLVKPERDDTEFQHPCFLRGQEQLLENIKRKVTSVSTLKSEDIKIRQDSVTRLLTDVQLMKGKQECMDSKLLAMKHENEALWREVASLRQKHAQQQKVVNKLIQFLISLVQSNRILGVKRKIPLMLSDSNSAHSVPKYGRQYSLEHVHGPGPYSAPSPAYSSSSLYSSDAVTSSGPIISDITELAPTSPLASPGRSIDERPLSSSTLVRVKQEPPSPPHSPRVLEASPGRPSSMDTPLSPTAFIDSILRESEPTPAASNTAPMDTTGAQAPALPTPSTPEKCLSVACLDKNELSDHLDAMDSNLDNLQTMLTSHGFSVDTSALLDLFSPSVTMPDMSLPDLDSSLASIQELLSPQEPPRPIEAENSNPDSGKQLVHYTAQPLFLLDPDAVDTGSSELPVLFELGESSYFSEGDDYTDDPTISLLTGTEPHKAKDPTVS
# [18] = target: T5, Cytochrome P450 3A4 (Homo sapiens, UniProt P08684)
# T5 sequence (P08684 whole entry): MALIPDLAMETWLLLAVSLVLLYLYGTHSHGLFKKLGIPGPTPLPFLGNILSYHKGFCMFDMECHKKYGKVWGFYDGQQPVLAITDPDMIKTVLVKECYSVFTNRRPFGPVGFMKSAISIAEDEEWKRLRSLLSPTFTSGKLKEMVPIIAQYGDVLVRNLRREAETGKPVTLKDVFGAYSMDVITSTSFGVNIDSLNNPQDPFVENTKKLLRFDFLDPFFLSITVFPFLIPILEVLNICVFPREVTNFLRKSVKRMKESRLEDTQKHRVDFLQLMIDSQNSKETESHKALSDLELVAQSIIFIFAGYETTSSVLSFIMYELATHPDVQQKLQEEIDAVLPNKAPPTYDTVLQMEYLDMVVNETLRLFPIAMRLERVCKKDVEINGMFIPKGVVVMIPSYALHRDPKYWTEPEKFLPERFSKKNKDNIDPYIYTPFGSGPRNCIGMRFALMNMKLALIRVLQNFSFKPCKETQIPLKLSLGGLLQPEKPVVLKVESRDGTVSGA
# [19] = target: Cytochrome P450 2C19 (Homo sapiens, UniProt P33261); assay: Cytochrome panel assay with activity outcomes. Panel member name: p450-cyp2c19 Compounds with AC50 equal or less than 10 uM are considered active; type: functional; conditions: read-out: AC50
# Chain of Cytochrome P450 2C19 (P33261 whole entry): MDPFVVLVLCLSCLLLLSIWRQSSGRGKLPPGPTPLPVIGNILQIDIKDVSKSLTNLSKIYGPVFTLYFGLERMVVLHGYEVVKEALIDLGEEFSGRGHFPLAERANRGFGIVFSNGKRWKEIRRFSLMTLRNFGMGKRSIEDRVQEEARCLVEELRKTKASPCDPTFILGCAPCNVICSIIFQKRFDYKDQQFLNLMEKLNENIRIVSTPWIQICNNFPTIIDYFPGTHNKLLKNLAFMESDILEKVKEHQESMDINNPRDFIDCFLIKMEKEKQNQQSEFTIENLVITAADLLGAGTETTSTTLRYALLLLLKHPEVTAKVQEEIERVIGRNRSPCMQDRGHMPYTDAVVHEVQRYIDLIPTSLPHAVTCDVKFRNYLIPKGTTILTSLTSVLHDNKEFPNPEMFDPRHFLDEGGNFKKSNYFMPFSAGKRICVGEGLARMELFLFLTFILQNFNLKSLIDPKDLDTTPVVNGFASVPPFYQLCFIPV
# [20] = target: Cytochrome P450 2C9 (Homo sapiens, UniProt P11712)
# Chain of Cytochrome P450 2C9 (P11712 whole entry): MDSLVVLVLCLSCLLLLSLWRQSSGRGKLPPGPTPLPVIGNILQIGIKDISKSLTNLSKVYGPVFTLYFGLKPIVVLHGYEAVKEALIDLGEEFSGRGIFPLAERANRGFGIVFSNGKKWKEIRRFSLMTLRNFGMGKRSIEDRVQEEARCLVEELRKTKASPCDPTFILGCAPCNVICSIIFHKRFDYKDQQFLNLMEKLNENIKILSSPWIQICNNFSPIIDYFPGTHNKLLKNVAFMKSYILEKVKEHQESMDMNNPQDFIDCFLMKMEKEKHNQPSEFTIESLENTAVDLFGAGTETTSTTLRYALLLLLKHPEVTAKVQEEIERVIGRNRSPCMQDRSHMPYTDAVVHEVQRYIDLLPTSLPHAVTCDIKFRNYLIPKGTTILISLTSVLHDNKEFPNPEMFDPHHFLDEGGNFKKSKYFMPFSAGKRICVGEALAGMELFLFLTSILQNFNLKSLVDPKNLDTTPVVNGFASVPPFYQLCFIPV
# [21] = target: T5, Cytochrome P450 3A4; conditions: Potency
smiles,measurement,setting,value
CCCn1c(=O)c2ccccc2n2c(SCCOc3ccc(C)cc3)nnc12,EC50,[1],1.68 µM (active)
O=C(O)c1ccc2cccc(O)c2n1,EC50,[2],> 350 µM (not active)
same,IC50,[3],> 100 µM (not active)
same,EC50,[4],> 350 µM (not active)
COc1ccccc1-c1nc(C#N)c(N2CCN(c3cccc(Cl)c3)CC2)o1,IC50,[5],> 20 µM (inactive)
same,IC50,[6],> 20 µM (inactive)
same,IC50,[7],17.4 µM (inactive)
same,EC50,[8],11.2 µM (active)
same,IC50,[9],18.5 µM (active)
same,EC50,[10],8.65 µM (active)
Cc1ccc(NC(=O)Cc2cc(C(=O)O)c3ccccc3n2)c(C)c1,IC50,[5],> 20 µM (inactive)
same,IC50,[6],> 20 µM (inactive)
same,IC50,[7],8.76 µM (inactive)
same,EC50,[8],6.77 µM (active)
same,IC50,[9],11.7 µM (active)
same,EC50,[10],7.04 µM (active)
COCC(C)n1c(C)cc(C(=O)COc2ccc(C)nc2[N+](=O)[O-])c1C (centres undefined),IC50,[5],> 20 µM (inactive)
same,IC50,[6],> 20 µM (inactive)
same,IC50,[7],> 20 µM (inactive)
same,EC50,[8],16.7 µM (active)
same,IC50,[9],6.88 µM (active)
same,EC50,[10],> 20 µM (inactive)
O=C(O)c1ccc(OCc2ccc(C(=O)O)o2)cc1,IC50,[3],> 100 µM (not active)
CC1CCc2c(sc3ncnc(SCC(=O)Nc4ccc(C(=O)O)cc4)c23)C1 (centres undefined),EC50,[1],6.68 µM (active)
Cc1ccc(-c2cc(C(=O)Nc3ccc(S(=O)(=O)Nc4ncccn4)cc3)[nH]n2)c(O)c1C,IC50,[11],17.7 µM (not active)
same,IC50,[12],> 55.7 µM (not active)
O=C(Nc1ccc(Cl)cn1)c1ccc(Br)c(S(=O)(=O)N2CCCCC2)c1,IC50,[5],18.7 µM (active)
same,IC50,[6],> 20 µM (inactive)
same,IC50,[7],9.77 µM (active)
same,EC50,[8],> 20 µM (inactive)
same,IC50,[9],7.73 µM (active)
same,EC50,[10],9.56 µM (active)
CN(C)c1ccc(/C=C2\SC(=O)N(CCc3nnc(N)s3)C2=O)cc1,AC50,[13],2.54 µM (active)
same,IC50,[11],> 55.9 µM (not active)
same,EC50,[14],8.39 µM (inconclusive)
same,AC50,[15],1.87 µM (active)
same,EC50,[16],4.74 µM (active)
same,IC50,[12],47.8 µM (not active)
same,EC50,[17],6.52 µM (inconclusive)
CCOC(=O)C1C(=O)NC(SCC(N)=O)=C(C#N)C1c1ccccc1OCC (centres undefined),IC50,[11],> 6.21 µM (active)
same,IC50,[12],> 55.7 µM (not active)
Cc1cccc(Oc2coc3cc(OC(=O)c4cc5ccccc5oc4=O)ccc3c2=O)c1,AC50,[18],39.8 µM (inconclusive)
same,AC50,[19],25.1 µM (inconclusive)
same,AC50,[20],inconclusive
O=S(=O)(CC(O)COc1ccccc1Cl)c1ccccc1 (centres undefined),AC50,[20],inconclusive
O=C(c1cccc(C(F)(F)F)c1)C1CCCN(Cc2ccccc2O)C1 (centres undefined),EC50,[1],2.37 µM (active)
COc1ccc(CNC(=O)c2ccc3ccccc3n2)cc1OC,IC50,[5],> 20 µM (inactive)
same,IC50,[6],> 20 µM (inactive)
same,IC50,[7],> 20 µM (inactive)
same,EC50,[8],11.7 µM (active)
same,IC50,[9],14.5 µM (active)
same,EC50,[10],7.83 µM (active)
Cc1ccccc1CN1CCCC(C(=O)Nc2ccccc2Oc2cccnc2)C1 (centres undefined),EC50,[1],5.31 µM (active)
COc1ccccc1-c1oc2ccccc2c(=O)c1OC,AC50,[21],20 µM (inconclusive)
CN(C)C(=O)c1ccc(-n2nc(C(F)(F)F)c3c2CCCC3)cc1,AC50,[20],inconclusive
O=C1CN=C(Nc2cccc(C(F)(F)F)c2)N1C1CCCC1,EC50,[1],6.68 µM (active)
COc1cc(-c2oc3cc(O)ccc3c(=O)c2O)ccc1O [GERALDOL],AC50,[21],10 µM (inconclusive)
CC(C(=O)O)c1ccc(N2Cc3ccccc3C2=O)cc1 (centres undefined) [INDOPROFEN],AC50,[21],39.8 µM (inconclusive)
CNC(=O)N(C)c1nnc(C(C)(C)C)s1 [TEBUTHIURON],AC50,[21],12.6 µM (inconclusive)
